Experimental data as given in PubChem BioAssay AID179 (DTP/NCI, 2004).
The source made the active and inactive calls.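 The calls were made as follows: active = compounds giving half or more protection of infected cells from virus-caused growth loss, again on retest; inactive = the rest.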 Where a SMILES comes first, the peptide text is derived from it.

System: CEM cells HIV-1 protection, formazan growth assay
Experiment: NCI AIDS Antiviral Assay
Details: for IC50: measured here: growth of uninfected CEM cells
Method in brief: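 Human CEM cells, uninfected and HIV-1-infected, exposed to five drug concentrations; growth measured by soluble formazan assay and scored as percent protection from infection, with protecting compounds retested.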

SMILES	EC50	IC50	outcome
O=C(/C=C/c1ccccc1)NC(=S)NCc1ccco1	> 200 µM	> 200 µM	–
Cc1ccc(O)c(C(c2cccc(C(c3cc(C)ccc3O)c3cc(C)ccc3O)c2)c2cc(C)ccc2O)c1	> 20 µM	3.31 µM	–
COc1ccc(C2(OC)Oc3cc(OC)ccc3C(=O)C2(O)O)cc1 (centres undefined)	> 200 µM	10.7 µM	–
CCN(CC)CCNc1ccc(CO)c2oc3ccc(O)cc3c(=O)c12	> 191 µM	1.32 µM	–
CCCCNc1nc(NC2OCC(OC(C)=O)C(OC(C)=O)C2OC(C)=O)c(N=O)c(=O)n1C (centres undefined)	> 200 µM	> 200 µM	–
CCC(C)C(NC(=O)C(CCCN=C(N)N)NC(=O)C(CC(=O)O)NC(=O)C(Cc1cnc[nH]1)NC(=O)C(N)CC(C)C)C(=O)NC(C(=O)NC(CC(C)C)C(=O)NCC(=O)NC(CC(=O)O)C(=O)O)C(C)CC (centres undefined) (H-LHDRIILGD-OH; configuration not given here)	> 58.9 µM	> 58.9 µM	–
NC1=NCC(CN2CCCCC2)O1 (centres undefined)	> 200 µM	> 200 µM	–
CC1(C)CCCOc2cccc(c2)OCCCC(C)(C)C1=O	> 200 µM	> 200 µM	–
COc1ccc2c3c(c4cc(OC)c(OC)cc4c2c1)C[C@H]1CCCCN1C3	> 31.6 µM	0.01 µM	–
CC(C1=C(CCN(C)C)Cc2ccccc21)c1ccccn1 (centres undefined)	> 200 µM	155 µM	–
CCN1CC2(C)CC[C@@H](OC)C34[C@@H]2[C@H](OC(C)=O)C2(OCO[C@@]25C[C@H](OC)C2C[C@]3(O)[C@@H]5[C@H]2O)[C@H]14	–	–	inactive
O=C(O)CSc1n[nH]c(Cc2ccccc2)n1	> 1000 µM	> 1000 µM	–
O=C(C#Cc1ccccc1)Nc1ccccc1CC(c1c[nH]c2ccccc12)c1c[nH]c2ccccc12	> 26.3 µM	5.25 µM	–
O=C1Sc2ccccc2C(=O)N2CCSC12 (centres undefined)	126 µM	> 200 µM	–
NC(N)NCCCc1cn2c(n1)C1CCCN1C(=O)C2Cc1ccccc1 (centres undefined)	> 676 µM	> 676 µM	–
O=C(O)/C(Cl)=C(Cl)/C=N/NC(=O)c1cc2ccccc2cc1O	> 102 µM	5.75 µM	–
COc1ccc(C(=O)C(C(=O)CCC(=O)Nc2cccc(Cl)c2)c2ccc(OC)cc2)cc1 (centres undefined)	> 15.5 µM	> 15.5 µM	–
CC1CN=C(N(Cc2ccccc2)C(=O)Nc2ccc(Cl)c(Cl)c2)S1 (centres undefined)	> 200 µM	67.6 µM	–
C/C=C(/CCCCOC1CCCCO1)[Si](C)(C)C (centres undefined)	–	–	inactive
CC1CCC2C(C(=O)O[C@H]3C4CCO[C@@H](OC5OC(CO)C(O)C(O)C5O)C4[C@@]4(CO)O[C@@H]34)=CO[C@@H](OC3OC(CO)C(O)C(O)C3O)C12 (some centres undefined)	> 200 µM	> 200 µM	–
O=C1C(c2ccccc2)=C(c2ccccc2)C(c2ccc(CCCCCCc3ccc(C4=C(c5ccccc5)C(=O)C(c5ccccc5)=C4c4ccccc4)cc3)cc2)=C1c1ccccc1	> 1.23 µM	> 1.23 µM	–

SMILES	EC50	IC50	outcome
COc1ccc2[nH]c3c4c(cc(-c5ccccc5)c3c2c1)C(=O)N(c1ccccc1)C4=O	> 9.12 µM	> 9.12 µM	–
CC(=O)c1ccc2c(c1)CC1(C2)Cc2cc3c(cc2C1)C(=O)CC3 (centres undefined)	> 200 µM	0.234 µM	–
CSC1=NN(c2ccccc2)C(=O)C1=C(SC)SC	> 200 µM	25.1 µM	–
[C-]#[O+].[C-]#[O+].[C-]#[O+].[Re].c1ccc2c(c1)[cH-]c1ccccc12	> 1.66 µM	> 1.66 µM	–
Oc1ccc(/C=N/c2nccs2)c(O)c1	> 200 µM	138 µM	–
[N-]=[N+]=NC[C@H]1OCO[C@H](CN=[N+]=[N-])[C@@H](OCCOCCCl)[C@@H]1OCCOCCCl	> 200 µM	148 µM	–
COc1cc(CNc2ccc(C(C)C)cc2)cc(OC)c1OC	> 74.1 µM	31.6 µM	–
Cc1ccnc2c1C(=O)C1=C(OC(C)(C)CC1O)C2=O (centres undefined)	> 200 µM	10.7 µM	–
Cn1nnc2c(C(N)=O)ncn2c1=O	> 1290 µM	776 µM	–
CSc1nnc2c(=O)n(C)c(=O)n(C)c2n1	> 200 µM	43.7 µM	–
CCOP(=S)(N/N=C1/C2(C)CCC(C2)C1(C)C)OCC (centres undefined)	> 200 µM	20 µM	–
COc1cc2c(cc1OC)C1C(=O)c3c(O)cc4c(c3OC1CO2)C=CC(C)(C)O4 (centres undefined)	> 1.82 µM	0.891 µM	–
O=C(CN1CCCCC1)OCOP(=O)(OCOC(=O)CN1CCCCC1)OCC1CCC(n2ccc(=O)[nH]c2=O)O1 (centres undefined)	> 100 µM	36.3 µM	–
O=C(O)CC(SSCc1ccccc1)C(=O)O (centres undefined)	> 200 µM	> 200 µM	–
CN1CCN(Cc2cc3c(nn2)-c2ccccc2C3=O)CC1	> 200 µM	110 µM	–
Cn1cc2ccccc2c1-c1nc(F)nc(Oc2ccc3c(c2)CC[C@@H]2C3CC[C@]3(C)C(O)CCC23)n1 (some centres undefined)	> 5.5 µM	> 5.5 µM	–
CC1C2CC=CC(=O)[C@@]2(C)CCC12OCCO2 (some centres undefined)	–	–	inactive
CN=c1ss/c(=N\C(=S)N(C)C)n1-c1ccccc1	–	–	inactive
CCCCCCCCCCCCOC1OC(CO)C(O)C(O)C1O (centres undefined)	> 85.1 µM	38 µM	–
Cc1cccc2c1CC1(Cc3c(C)cccc3C1=O)C2=O	> 200 µM	> 200 µM	–
O=C(OC1C2OC(=O)c3cc(O)c(O)c(O)c3Oc3cc4c(c(O)c3O)-c3c(cc(O)c(O)c3O)C(=O)OCC3OC(O)C(OC(=O)c5cc(O)c(O)c(O)c5Oc5cc6c(c(O)c5O)-c5c(cc(O)c(O)c5O)C(=O)OC1C(COC6=O)OC2O)C(OC(=O)c1cc(O)c(O)c(O)c1)C3OC4=O)c1cc(O)c(O)c(O)c1 (centres undefined)	> 69.2 µM	34.7 µM	–

SMILES	EC50	IC50	outcome
CC(=O)c1ccc2c(c1)NC(=O)CC(C)N2 (centres undefined)	> 200 µM	> 200 µM	–
COc1ccccc1/C=C1\N=C(c2ccccc2)OC1=O	> 200 µM	17.4 µM	–
COc1cc(OC)c2nccc(NCCCN(C)C)c2c1[N+](=O)[O-]	> 200 µM	93.3 µM	–
CC([C@H]1CCC2[C@@H]3CCC4C(=O)C(NC(=O)c5ccccc5)=CC[C@]4(C)C3CC[C@@]21C)N(C)C (some centres undefined)	> 4.37 µM	1.32 µM	–
O=C(O)CCc1ccc2c(c1)CC1(Cc3ccccc3C1)C2	> 200 µM	102 µM	–
C#CC1(O)CCC2C3CCc4cc(Oc5nc(F)nc(-c6c7ccccc7c7sc8ccccc8n67)n5)ccc4C3CC[C@@]21C (some centres undefined)	> 200 µM	115 µM	–
c1ccc(C(NC2=NCCO2)C2CC2)cc1 (centres undefined)	> 200 µM	45.7 µM	–
CCOC(=O)C1SC(=Nc2ccc(C)c(C)c2)N=C1C (centres undefined)	> 18.2 µM	> 18.2 µM	–
N#Cc1ccccc1NC(=O)/C(=N\NC(=O)c1ccncc1)C(c1cnc2ccc([N+](=O)[O-])cc2n1)[N+](=O)[O-] (centres undefined)	> 479 µM	191 µM	–
C=CCc1ccccc1N(C(=O)c1ccccc1)C(C(=O)OCC)c1ccccc1 (centres undefined)	> 13.2 µM	> 13.2 µM	–
CC(=O)Nc1ccc(CNc2cc(=O)[nH]c(=O)[nH]2)cc1	> 200 µM	> 200 µM	–
[N-]=[N+]=Nc1ncnc2c1sc(=S)n2-c1ccccc1	> 91.2 µM	> 91.2 µM	–
COc1ccc2c(c1)-c1c(c3ccccc3n1CCN1CCOCC1)CC2	–	–	inactive
O=C(Nc1ccc2c(O)c(N=Nc3ccc4c(O)cc(S(=O)(=O)O)cc4c3)c(S(=O)(=O)O)cc2c1)c1ccccc1	18.6 µM	50.1 µM	–
NC(=O)NCCCC(NC(=O)OCCCCn1ccc(=O)[nH]c1=O)C(=O)O (centres undefined)	> 200 µM	> 200 µM	–
O=C1NC2C(NC(=O)N2Cl)N1Cl (centres undefined)	> 200 µM	> 200 µM	–
CN(C)CCCN1CCc2c([nH]c3ccccc23)C1c1cccnc1 (centres undefined)	> 107 µM	> 107 µM	–
COc1c(O)c2c(=O)cc(OC)c3c4c(OC)cc(=O)c5c(O)c(OC)c6c(c(c1CC(C)(O)C6C(C)=O)c23)c54 (centres undefined)	> 13.2 µM	1.58 µM	–
O=C(/N=C/c1c(O)c2ccccc2oc1=O)Nc1ccccc1	> 17 µM	> 17 µM	–
C/C(=N/NC(=O)c1ccccc1S(N)(=O)=O)C(CN1CCCCC1)C(C1=C(O)C2C=CC=CC2OC1=O)c1ccccc1 (centres undefined)	> 21.4 µM	> 21.4 µM	–
Cc1cc2nc3c(C(OC4OC(CO)C(O)C(O)C4O)C(O)CO)nn(-c4ccccc4)c3nc2cc1C (centres undefined)	–	–	inactive

SMILES	EC50	IC50	outcome
CC(c1ccccc1)N1O[C@]12CC[C@@]1(C)C(CCCC13OCCO3)C2 (some centres undefined)	–	–	inactive
Clc1ccc(CN2COc3c(cc(Cl)c4cccnc34)C2)cc1	> 64.6 µM	1.26 µM	–
O=C1OCCOCCOCCOC(=O)c2ccccc2SSc2ccccc21	> 200 µM	33.9 µM	–
O=C(Nc1ccc(O)cc1C(=O)O)c1ccc(O)cc1	> 229 µM	> 229 µM	–
CC1=CC(=O)C(=C(C)C)CC1	> 200 µM	129 µM	–
O=c1[nH]c(=O)n(C2CC(O)C(CO)O2)c2ncncc12 (centres undefined)	> 200 µM	> 200 µM	–
COc1ccc(/C=C/C(=O)c2ccccc2)cc1	> 41.7 µM	24.5 µM	–
Clc1ccc(C2=NOC3C4CCC(C4)C23)cc1 (centres undefined)	–	–	inactive
CC(=O)Nc1cc(S(=O)(=O)O)cc2cc(S(=O)(=O)O)c(N=Nc3ccc(C(=O)Nc4ccc(S(=O)(=O)O)cc4)cc3)c(O)c12	–	–	inactive
CN(C)CCN1C(=O)c2c(c3cccn3c3c2cnn3-c2ccccc2)C1=O	> 200 µM	> 200 µM	–
CC(=O)OCC1OC(n2c(-c3ccccc3)c(C)c(C)c(C#N)c2=S)C(OC(C)=O)C(OC(C)=O)C1OC(C)=O (centres undefined)	> 100 µM	> 100 µM	–
NC1=NC(=O)[C@H](CSCc2ccccc2)N1C(=O)OCc1ccccc1	> 200 µM	> 200 µM	–
CC1OC(OC2C(O)C(O)C(N=C(N)N)C(O)C2N=C(N)N)C(OC2OC(CO)C(O)C(O)C2N(C)N=O)C1(O)C=O (centres undefined)	–	–	inactive
O=c1ccn([C@@H]2C=C(CO)[C@@H](O)[C@H]2O)c(=O)[nH]1	> 200 µM	> 200 µM	–
Nc1nncc2[nH]cnc12	> 200 µM	10 µM	–
N#CC(/C(=N/NC(N)=S)C(=O)Nc1cccc(Cl)c1)c1ccccc1 (centres undefined)	> 19.5 µM	10.5 µM	–
CSc1c(C(N)=O)c2c(N)ncnc2n1C1OC(CO)C(O)C1O (centres undefined)	> 2 µM	1.02 µM	–
COC(=O)C1=C(\N2CCOCC2)CCCCC/C=C\1C(=O)OC	> 776 µM	513 µM	–
CC(C)/C(Cl)=N\OC(=O)NNc1ccccc1	> 20 µM	5.75 µM	–
